# According to patent publication US20260125686A1, “COMPOSITIONS AND METHODS FOR MODULATION OF CFTR” (Cystic Fibrosis Foundation, priority 2022, published 2026):
# Tests used:
# [1] = test system: Exon 22 truncated CFTR mRNA; assay: ddPCR of Exon 22 truncated CFTR mRNA in 16HBE14o- WT cells treated with ASOs; format: cell-based, human
# Experimental: (§1) Free uptake ASO treatments in 16HBEs. Steric blocking ASOs were purchased from IDT with Phosphorothioate (PS) backbone and 2-O-Methoxyethyl (2′-MOE) modifications at each nucleotide. Lyophilized steric blocking ASOs were resuspended in PBS+Mg+Ca to 1 mM and stored in frozen aliquots to minimize the effects of freeze thaw cycles. 16HBEge and 16HBE14o- lines were seeded at 0.150×10^6 cells/well in 24 well plates and grown at 37° C./5% CO2 in MEM supplemented with 10% FBS and 1% Penicil-lin/Streptomycin. After 24 hours, media was refreshed with addition of ASOs and RNA was harvested after 48 hours of treatment.
# ddPCR Isoform Quantification. RNA was isolated from treated cells with the Aurum Total RNA Mini Kit. One Step reverse transcriptase and quantitative PCR was performed with the iTaq Universal Probes One Step Kit. All qPCR was run on the CFX Touch Deep Well real-time PCR detection system and analyzed with Bio-Rad CFX Maestro 1.0 software (version 4.0.2325.0418). ddPCR assays were composed of: cDNA or digested genomic DNA, 2×ddPCR Supermix for Probes (no dUTP) (1× final) (Bio-Rad), 40× as-say (1× final), and nuclease free water in 20 μl total reaction volume. cDNA synthesis was performed with the iScript Advanced cDNA Synthesis Kit for RT-qPCR (Bio-Rad). […]
# [2] = test system: Exon 22 truncated CFTR mRNA; assay: ddPCR of Exon 22 truncated CFTR mRNA in 16HBEge-W1282X cells; format: cell-based, human; details: for Exon 22 truncated CFTR mRNA: 16HBEge-W1282X (FIG. 13A); for expression of Exon 22 truncated CFTR mRNA enhanced by: ASO alone vs no ASO treatment (FIG. 13A); for fold change increase in E22 trunc mRNA levels relative to (−) ASO (100 μM): in combination SA-08 10 μM
# Experimental: as §1
# (§2) ddPCR Isoform Quantification. RNA was isolated from treated cells with the Aurum Total RNA Mini Kit. One Step reverse transcriptase and quantitative PCR was performed with the iTaq Universal Probes One Step Kit. All qPCR was run on the CFX Touch Deep Well real-time PCR detection system and analyzed with Bio-Rad CFX Maestro 1.0 software (version 4.0.2325.0418). ddPCR assays were composed of: cDNA or digested genomic DNA, 2×ddPCR Supermix for Probes (no dUTP) (1× final) (Bio-Rad), 40× as-say (1× final), and nuclease free water in 20 μl total reaction volume. cDNA synthesis was performed with the iScript Advanced cDNA Synthesis Kit for RT-qPCR (Bio-Rad). Droplets were generated with QX200 Droplet Digital PCR System (Bio-Rad), cycled in the CFX Touch Deep Well real-time PCR detec-tion system (Bio-Rad), and analyzed with the QX200 Droplet Digital PCR system Droplet Reader. (Bio-Rad). Data was analyzed with the Quantasoft software version 1.7.4. ddPCR probes designed to the junction of exon 25/26 were used as a proxy of full-length WT or W1282X CFTR mRNA and probes de-signed to exon 22/intron 22 junction including the first 140 bp of intron 22 were used as a proxy of ex-on 22 truncated CFTR mRNA.
# 16HBEge-W1282X cells were treated with exemplary ASOs according to some embodiments of the present disclosure. In some cases, the exemplary ASOs were administered at various doses alone, in combination with other ASOs at various doses, or co-administered with Trikafta, and a plurality of assays were used to assess the effects of the ASO treatments in 16HBEge-W1282X cells.
# Exon 22 truncated CFTR mRNA was assayed using ddPCR, as depicted in FIGS. 13A-13B. 16HBEge-W1282X cells were treated with SA08 alone, SD10 alone, or SA08 in combination with SD10 at various doses, in the presence of DMSO vehicle control or Trikafta. As depicted in FIG. 13A, Exon 22 truncated CFTR mRNA was increased in all groups treated with exemplary ASO(s) compared to no ASO treatment. Separate treatment of SA08 alone and SD10 alone enhanced the expression of Exon 22 truncated CFTR mRNA by about 100% and by over 200%, from less than 20000 copies per 40 ng RNA to about 30000 copies and about 65000 copies per 40 ng RNA, respectively. The combination of SA08 and SD10 further enhanced the expression of Exon 22 truncated CFTR mRNA to about 80000 copies per 40 ng RNA. […] Full length CFTR W1282X mRNA levels were unchanged in SD-10 & SA-08 or combination treatment compared to untreated or (−) ASO (100 μM) control. (−) ASO (100 μM) E22 trunc mRNA levels were also unchanged compared to untreated cells. […] SD-10 & SA-08 or combination treatments induced a 4.5×, 5.1×, 6.6×, and 7.3× fold change increase in E22 trunc mRNA levels relative to (−) ASO (100 μM) with SD-10 (10 μM), SD-10 (100 μM), SD-10 (10 μM) & SA-08 (10 μM), and SD-10 (100 μM) & SA-08 (10 μM) respectively.
# [3] = test system: Full length CFTR W1282X mRNA; assay: ddPCR of full length CFTR mRNA in 16HBEge-W1282X cells; format: cell-based, human
# Experimental: as §2
# Exon 22 truncated CFTR mRNA was assayed using ddPCR, as depicted in FIGS. 13A-13B. […]
# Exon 22 truncated CFTR = Exon 22 truncated CFTR (Homo sapiens, UniProt P13569); assay: Western blot of de-glycosylated Exon 22 truncated CFTR protein in 16HBEge-W1282X cells; format: cell-based; design: contain the first 1239 amino acids of a WT CFTR; endogenous in cells; details: PNGase F treated
# Exon 22 truncated CFTR, sequence (P13569 with tags, fused parts or gaps): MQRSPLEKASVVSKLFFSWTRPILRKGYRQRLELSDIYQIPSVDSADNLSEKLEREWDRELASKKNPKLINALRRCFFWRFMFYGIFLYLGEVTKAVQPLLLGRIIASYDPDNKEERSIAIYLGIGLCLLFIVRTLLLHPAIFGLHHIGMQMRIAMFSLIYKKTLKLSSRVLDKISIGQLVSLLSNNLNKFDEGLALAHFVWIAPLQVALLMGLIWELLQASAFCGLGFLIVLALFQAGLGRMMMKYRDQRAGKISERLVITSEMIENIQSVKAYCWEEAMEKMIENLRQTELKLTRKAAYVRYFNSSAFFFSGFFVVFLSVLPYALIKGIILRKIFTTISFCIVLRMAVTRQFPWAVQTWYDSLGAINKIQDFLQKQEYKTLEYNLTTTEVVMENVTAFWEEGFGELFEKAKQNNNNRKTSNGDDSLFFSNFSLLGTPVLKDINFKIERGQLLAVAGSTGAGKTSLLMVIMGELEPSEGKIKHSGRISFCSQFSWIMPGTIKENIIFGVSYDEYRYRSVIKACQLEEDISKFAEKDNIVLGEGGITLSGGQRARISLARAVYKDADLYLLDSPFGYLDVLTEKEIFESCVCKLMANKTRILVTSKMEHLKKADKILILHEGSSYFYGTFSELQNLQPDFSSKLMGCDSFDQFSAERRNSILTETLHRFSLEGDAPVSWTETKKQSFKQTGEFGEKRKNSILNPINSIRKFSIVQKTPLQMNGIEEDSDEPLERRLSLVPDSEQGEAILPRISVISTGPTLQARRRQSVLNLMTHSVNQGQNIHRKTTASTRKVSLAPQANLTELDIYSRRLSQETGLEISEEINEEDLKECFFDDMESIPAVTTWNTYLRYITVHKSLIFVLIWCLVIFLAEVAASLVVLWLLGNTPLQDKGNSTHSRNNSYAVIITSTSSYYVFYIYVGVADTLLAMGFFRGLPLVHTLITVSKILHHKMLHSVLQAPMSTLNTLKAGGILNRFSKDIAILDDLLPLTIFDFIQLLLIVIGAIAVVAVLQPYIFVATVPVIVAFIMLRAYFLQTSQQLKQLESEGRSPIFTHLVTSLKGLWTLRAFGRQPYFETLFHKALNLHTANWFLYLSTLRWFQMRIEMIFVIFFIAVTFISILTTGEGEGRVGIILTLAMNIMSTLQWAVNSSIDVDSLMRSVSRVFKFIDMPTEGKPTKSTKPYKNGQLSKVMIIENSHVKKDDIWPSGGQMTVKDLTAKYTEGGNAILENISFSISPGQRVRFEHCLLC
# Experimental: Western blot analyses. Western blot analyses were performed as described previously, except the loading control, Na+/K+-ATPase, was detected with an antibody from Santa Cruz Biotechnology (sc-48345). 2.8.1.
# Exon 22 truncated CFTR protein expression was assayed using Western blotting, as depicted in FIG. 14. 16HBEge-W1282X cells were treated with exemplary ASO(s) alone or in combination (e.g., SD10; SD10 and SA08), in the presence of drug vehicle or correctors VX-445/661. Prior to electrophoresis and Western blotting, 16HBEge-W1282X cell extracts were treated with PNGase F to remove glycosylation. cDNA of four CFTR variants were transiently transfected in HEK293 cells, including WT CFTR (1480 aa), DelEx23 CFTR (1428 aa), W1282X CFTR (1281 aa), and Ex22 truncated CFTR (1248 aa). HEK293 cell extracts from these transfections were also treated with PNGase F and used as controls for Western blot. As depicted in FIG. 14, the α-CFTR UNC596 antibody (raised against epitope: 1204-1211 aa in Ex22) recognizes the deglycosylated Exon 22 truncated CFTR protein as one band at about 130 kDa.
Substance,"Exon 22 truncated CFTR mRNA, of FL CFTR level in WT cells [1] [%]",amount of Exon 22 truncated CFTR mRNA compared to no ASO treatment ([2]; 16HBEge-W1282X),Exon 22 truncated CFTR mRNA [2],expression of Exon 22 truncated CFTR mRNA enhanced by ([2]; 16HBEge-W1282X),"amount of Exon 22 truncated CFTR mRNA compared to no ASO treatment ([2]; 16HBEge-W1282X, listed as SD-10)","fold change increase in E22 trunc mRNA levels relative to (−) ASO (100 μM) ([2]; SD-10 10 μM, 16HBEge-W1282X) [×]","fold change increase in E22 trunc mRNA levels relative to (−) ASO (100 μM) ([2]; SD-10 100 μM, 16HBEge-W1282X) [×]",Full length CFTR W1282X mRNA levels compared to untreated or (−) ASO (100 μM) control [3],expression of Exon 22 truncated CFTR protein (Exon 22 truncated CFTR),"amount of Exon 22 truncated CFTR mRNA compared to no ASO treatment ([2]; 16HBEge-W1282X, listed as SA08)","amount of Exon 22 truncated CFTR mRNA compared to no ASO treatment ([2]; 16HBEge-W1282X, listed as SA-08)","expression of Exon 22 truncated CFTR mRNA, effect of Trikafta treatment ([2]; 16HBEge-W1282X, all groups)"
"aaagcaagcagtgttcaaatct (antisense AAAGCAAGCAGTGTTCAAATCT; all 2'-MOE, all phosphorothioate, methylation of C not given here) [SD10, PS backbone, 2′-MOE]",~37,increased,about 65000 copies per 40 ng RNA,over 200%,significantly increase,4.5,5.1,unchanged,increased,,,
"ataaggtaaaagtgatgggatc (antisense ATAAGGTAAAAGTGATGGGATC; all 2'-MOE, all phosphorothioate, methylation of C not given here) [SA8, PS backbone, 2′-MOE]",~25,,about 30000 copies per 40 ng RNA,about 100%,,,,unchanged,,increased,significantly increase,
elexacaftor/ivacaftor/tezacaftor [Trikafta],,,,,,,,,,,,did not significantly alter
